Results as given in US4562205A, “Derivatives of 2-aminoacetic acid” (Continental Pharma Inc., priority 1983, dated 1985).
Like-named read-outs stand apart in the source and are kept apart here.

Assays:
[1] = test system: convulsions induced by bicuculline in mice; assay: Anti-convulsant activity against bicuculline-induced convulsions (protection against tonic extension); type: in vivo, mice (CDl-Charles River); conditions: for potency compared with reference (in words): ED50 comparison, bicuculline test; for ED50: Mus musculus, 3 h, read-out: ED50 (dose providing protection against tonic extension of 50% of the animals); for % of protection (against tonic extension): 10 mg/kg, 20 mice
Method: The compounds tested, 2-pentanoylaminoacetic acid (compound I), sodium 2-pentanoylaminoacetate (compound II) or sodium valproate (a generally accepted reference substance), have been administered orally to 20 mice (CDl-Charles River) at a dose of 10 mg/kg as a suspension in a 1% tragacanth gum mucilage. Administration has been done by means of an intragastric tube.
Three hours later, bicuculline has been administered at a dose of 0,7 mg/kg by intravenous injection in the lateral vein of the tail.
The anti-convulsant activity of the compounds has been further evaluated, using the technique described hereinabove, by examining the effect at different doses. From the experimental data, the ED50 value has been calculated, i.e. the effective dose (mg/kg) providing protection against tonic extension of 50% of the animals.

in vivo [2] = conditions: mouse, in vivo, po
Source text: (§1) In further pharmacological tests the acute toxicity and the effect on behaviour have been examined. The effect on behaviour has been studied using a method derived from the one of S. Irvin [Gordon Res. Conf. on Medicinal Chemistry, p. 1933 (1959) as cited by R. A. Turner (Screening Methods in Pharmacology, Acad. Press, 1965, Chapter III, pages 22-34)].
(§2) No further testing has been made when a dose has been reached at which no abnormal behaviour or toxicity has been observed. […] The deaths were registered for 14 days following the treatment.

mice [3] = assay: in vivo; conditions: oral, mice
Source text: as §1, §2

in vivo [4] = conditions: mouse, in vivo, po; remark: listed apart in the source
Source text: as §1, §2
(§3) The LD50 value, i.e. the dose expressed in mg/kg which is lethal for 50% of the animals, has been calculated according to the Litchfield and Wilcoxon method [J. Pharmacol. Exp. Ther., 96, 99 (1949)].

mice [5] = assay: in vivo; conditions: mice; for deaths: 3000 mg/kg per os
Source text: as §1, §2, §3

[6] = oral, bicuculline 0,7 mg/kg i.v. three hours later
[7] = oral, different doses, bicuculline 0,7 mg/kg i.v. three hours later, mice

CCCCC(=O)NCC(=O)[O-].[Na+]
potency compared with reference (in words) ([1]; mice): more potent
ED50 ([1]; po): 9.2 mg/kg
% of protection (against tonic extension) [1, 6]: 55%
MTD at 336 h (in vivo [2]): ≥ 3000 mg/kg
toxicity and effect on behaviour (in words) (mice [3]): very weak
TI-B (MTD/ED50) (mice [3]; therapeutical index): > 326
LD50 at 336 h (in vivo [4]): > 3000 mg/kg
deaths (mice [5]): no deaths
TI-A (LD50/ED50) (mice [5]; therapeutical index, oral): > 326

CCCC(CCC)C(=O)[O-].[Na+] [sodium valproate, reference compound]
ED50 [1, 7]: 29 mg/kg
% of protection (against tonic extension) [1, 6]: 40%

CCCCC(=O)NCC(=O)O [compound I, 2-pentanoylaminoacetic acid]
potency compared with reference (in words) ([1]; mice): more potent
ED50 [1, 7]: 10.7 mg/kg
anti-convulsant activity (in words) ([1]; convulsions induced by bicuculline in mice): potent anti-convulsant activity
% of protection (against tonic extension) [1, 6]: 55%
MTD at 336 h (in vivo [2]): ≥ 3000 mg/kg
selectivity ratio (in vivo [2]; TI-B (MTD/ED50), therapeutical index, mice): > 280
toxicity and effect on behaviour (in words) (mice [3]): very weak
LD50 at 336 h (in vivo [4]): > 3000 mg/kg
deaths (mice [5]): no deaths
